Assay results taken from patent US20070135470A1, “Utilization of vinpocetine to avoid complications in particular those associated to hearing which occur with epilepsy, and treatment thereof” (UNIVERSIDAD NACIONAL AUTONOMA DE MEXICO, priority 2003, published 2007).

Legend:
Type in all cases: in vivo, guinea pig
[1] = system: epileptic cortical activity induced by 4-AP in guinea pigs; test: EEG recordings of cortical activity in 4-AP-induced epilepsy; conditions: 4-AP 2 mg/kg i.p.
Experimental: (§1) Experiments were performed in pigmented adult male guinea pigs initially weighing 349±38 g. ABRs recordings were used to evaluate the hearing status of each animal and EEG recordings to evaluate changes in cortical excitability. The ABR and EEG recordings were obtained following a method that we have previously reported (Nekrassov and Sitges, 2003). The Institutional Animal Use and Care Committee approved all experimental procedures.
(§2) Three types of recordings were performed in the anaesthetized animals, namely the ABR recordings elicited by a stimulus of high intensity (100 dB), the ABR recordings for determination of the auditory threshold and the EEG recordings.
(§3) Five guinea pigs were entered into the study. One hour after injecting guinea pigs with vehicle (acidified saline used to dissolve vinpocetine) the animals were anaesthetized and a first set of ABR and EEG recordings was taken before the injection (i.p) of the convulsing agent, 4-AP. The animals were injected with 4-AP (2 mg/kg) and about 20 min after injecting 4-AP (ictal period) the EEG recording was taken. Then the other series of ABR and EEG recordings were taken at specific times within the post-ictal period. After two weeks the same series of recordings were repeated but instead vehicle the animals were injected with vinpocetine (2 mg/kg) 1 hour before the injection of 4-AP.
Vinpocetine inhibits all the changes induced by 4-AP on the EEG. […] This change on the cortical activity elicited by 4-AP for the ictal period is followed by the post-ictal period characterized by isolated spikes of higher amplitude that appear on the EEG about one hour after the injection of 4-AP. […] The top traces of FIG. 6 show the characteristic EEG recordings taken before the injection of 4-AP in the animals pre-injected with vehicle (a) and in the animals pre-injected with vinpocetine (b). The changes induced by 4-AP on for the ictal period are shown in the second trace on FIG. 6a. In the vinpocetine treated animals 4-AP was unable to induce the ictal activity (second trace on FIG. 6b).

[2] = system: epilepsy induced by 4-AP in guinea pigs; test: ABR wave parameters (amplitude, latency) in 4-AP-induced epilepsy; conditions: 100 dB, vinpocetine 2 mg/kg or vehicle 1 h before 4-AP
Experimental: as §1, §2
(§4) Determination of ABR wave parameters. The latency and amplitude of each wave component of the ABR elicited by a stimulus of 100 dB with pure tone frequencies of 4 and 8 kHz was measured in all the ABR recordings obtained under the different experimental conditions at the specified times. The latency of each ABR wave (in ms) refers to the time interval between the onset of the auditory stimulus and the positive peak of the wave. The onset of the stimulus is indicated by the vertical arrow at the bottom of the recordings on FIG. 1. The peak amplitude (in μV) of each wave of the ABR is the difference between the positive peak of the wave and the reference baseline (trace between the stimulus and the appearance of the first ABR wave on FIG. 1).
(§5) Student's t-test was used for the evaluation of the differences between results obtained before and at the specified times after the injection of the convulsing agents. The criterion for statistical significance for all measures was P≦0.05. All data are expressed as means±standard error of the mean. In figures and tables the symbol * is used for indicating statistic significant differences.
as §3

[3] = system: hearing loss induced by 4-AP in guinea pigs; test: ABR (auditory) threshold in 4-AP-induced epilepsy; conditions: vinpocetine 2 mg/kg or vehicle 1 h before 4-AP
Experimental: as §1, §2
(§6) Determination of ABR thresholds. ABR recordings elicited by stimuli of progressively lower intensity (in dB) were used for determining the hearing threshold. Threshold is defined as the lowest stimulus intensity (in dB) at which the P3 wave of the ABR could still be recorded in three consecutive trials.
as §5, §3

[4] = system: epilepsy induced by PTZ in guinea pigs; test: ABR wave parameters (amplitude, latency) in PTZ-induced epilepsy; conditions: 100 dB, vinpocetine 2 mg/kg or vehicle 4 h before PTZ
Experimental: as §1, §2, §4, §5
(§7) Eight male guinea pigs were entered into this study. PTZ was dissolved in saline and vinpocetine in a saline acidified (with HCl) adjusted to pH 4 (with NaOH). Four hours after injecting guinea pigs with vehicle (acidified saline used to dissolve vinpocetine) the animals were anaesthetized and a first set of ABR and EEG recordings was taken before the injection (i.p) of the convulsing agent, PTZ. The animals were injected with PTZ (100 mg/kg) and about 2 min after injecting PTZ (ictal period) the EEG recording was taken. Then the other series of ABR and EEG recordings were taken at specific times within the post-ictal period. After two weeks the same series of recordings was taken but instead vehicle the animals were injected with vinpocetine (2 mg/kg) 4 hours before the injection of PTZ.

[5] = system: hearing loss induced by PTZ in guinea pigs; test: ABR (auditory) threshold in PTZ-induced epilepsy; conditions: vinpocetine 2 mg/kg or vehicle 4 h before PTZ
Experimental: as §1, §2, §6, §5, §7

[6] = system: epileptic cortical activity induced by PTZ in guinea pigs; test: EEG recordings of cortical activity in PTZ-induced epilepsy; conditions: PTZ 100 mg/kg i.p.
Experimental: as §1, §2, §7
Vinpocetine inhibits all the changes induced by PTZ on the EEG. […] This dramatic change on the cortical activity induced by PTZ in the anaesthetized animals during convulsions is followed by a typical pattern of cortical activity characterized by rhythmic spike bursts of high amplitude. The duration time of this typical pattern of cortical activity, that is not accompanied by convulsions is referred as the post-ictal period.

[7] = animals pre-injected with vehicle
[8] = 4 kHz, 30 min after 4-AP 2 mg/kg i.p.
[9] = 4 kHz, 60 min after 4-AP 2 mg/kg i.p.
[10] = 8 kHz, 30 min after 4-AP 2 mg/kg i.p.
[11] = 8 kHz, 60 min after 4-AP 2 mg/kg i.p.
[12] = 4 kHz, 30 min after PTZ 100 mg/kg i.p.
[13] = 4 kHz, 50 min after PTZ 100 mg/kg i.p.
[14] = 8 kHz, 30 min after PTZ 100 mg/kg i.p.
[15] = 8 kHz, 50 min after PTZ 100 mg/kg i.p.

SMILES: Nc1ccncc1 [4-AP, 4-aminopyridine]
- time of appearance of seizure (spike-sharp wave) activity in the EEG after injection [1]: about 20 min
- seizure induction in anaesthetized animals [1, 7]: developed generalized seizures
- latency of the P4 wave of the ABR [2, 8]: 3.78 ± 0.09 * ms
- latency of the P4 wave of the ABR [2, 9]: 3.78 ± 0.09 * ms
- latency of the P4 wave of the ABR ([2]; 4 kHz, 80 min after 4-AP 2 mg/kg i.p.): 3.78 ± 0.09 * ms
- latency of the P4 wave of the ABR ([2]; 4 kHz, 100 min after 4-AP 2 mg/kg i.p.): 3.75 ± 0.10 * ms
- latency of the P4 wave of the ABR [2, 10]: 3.51 ± 0.13 ms
- latency of the P4 wave of the ABR [2, 11]: 3.80 ± 0.10 * ms
- latency of the P4 wave of the ABR ([2]; 8 kHz, 80 min after 4-AP 2 mg/kg i.p.): 3.80 ± 0.10 * ms
- latency of the P4 wave of the ABR ([2]; 8 kHz, 100 min after 4-AP 2 mg/kg i.p.): 3.83 ± 0.12 * ms
- auditory threshold [3, 8]: 20 ± 2.0 * dB
- auditory threshold [3, 9]: 30 ± 3.5 * dB
- auditory threshold [3, 10]: 10.0 ± 2.0 * dB
- auditory threshold [3, 11]: 23.8 ± 6.3 * dB

SMILES: C1CCc2nnnn2CC1 [PTZ, pentylenetetrazole]
- P4 wave peak amplitude of the ABR ([4]; 4 kHz, 10 min after PTZ 100 mg/kg i.p.): 1.70 ± 0.5 * μV
- P4 wave peak amplitude of the ABR ([4]; 4 kHz, 20 min after PTZ 100 mg/kg i.p.): 2.12 ± 0.4 * μV
- P4 wave peak amplitude of the ABR [4, 12]: 1.84 ± 0.4 * μV
- P4 wave peak amplitude of the ABR [4, 13]: 2.11 ± 0.3 * μV
- P4 wave peak amplitude of the ABR ([4]; 8 kHz, 10 min after PTZ 100 mg/kg i.p.): 2.07 ± 0.4 * μV
- P4 wave peak amplitude of the ABR ([4]; 8 kHz, 20 min after PTZ 100 mg/kg i.p.): 1.99 ± 0.3 * μV
- P4 wave peak amplitude of the ABR [4, 14]: 1.92 ± 0.3 * μV
- P4 wave peak amplitude of the ABR [4, 15]: 1.51 ± 0.5 * μV
- auditory threshold [5, 12]: 28 ± 2.0 * dB
- auditory threshold [5, 13]: 29 ± 1.0 * dB
- auditory threshold [5, 14]: 17 ± 2.0 * dB
- auditory threshold [5, 15]: 21 ± 2.4 * dB
- onset of seizure activity in the EEG after injection [6]: within the two first min
- seizure induction in anaesthetized animals [6, 7]: developed generalized seizures
